# Experimental data from publication PMC3353862.
# Test system: bacterial protein synthesis (aminoacylation/translation system)
# Test: aminoacylation/translation (A/T) assay
# Assay type: biochemical
# Settings: not given
row,SMILES,biochemical activity in the A/T assay
1,Cc1cccc(-c2nc3c(c(=O)[nH]2)CN(Cc2ccc(Cl)cc2)CC3)n1 [Compound 332052],completely abolished activity
2,O=c1[nH]c(-c2ccco2)nc2c1CN(Cc1ccc(Cl)cc1)CC2 [Compound 332053],abolished all biochemical activity

# Same assay, conditions: A/T assay, Table 1; read-out: IC50
row,SMILES,IC50 [µM]
1,COc1cc(CN2CCc3nc(-c4ccccn4)[nH]c(=O)c3C2)ccc1OCCO [Compound 323214],> 300
2,COc1cc(CN2CCc3nc(-c4ccccn4)[nH]c(=O)c3C2)ccc1O [Compound 323215],2.1
3,O=c1[nH]c(-c2ccccn2)nc2c1CN(Cc1ccc(Cl)cc1)CC2 [Compound 323216],1.1
4,COc1ccc(CN2CCc3nc(-c4ccccn4)[nH]c(=O)c3C2)cc1O [Compound 323217],4.8
5,Cc1cccc(-c2nc3c(c(=O)[nH]2)CN(Cc2ccc(Cl)cc2)CC3)n1 [Compound 332052],> 300
6,O=c1[nH]c(-c2ccco2)nc2c1CN(Cc1ccc(Cl)cc1)CC2 [Compound 332053],> 300

# Test system: E. faecalis
# Test: Broth microdilution MIC testing
# Assay type: cell-based, Enterococcus faecalis
# Settings: E. faecalis
row,SMILES,MIC E. fae [µg/mL]
1,COc1cc(CN2CCc3nc(-c4ccccn4)[nH]c(=O)c3C2)ccc1OCCO [Compound 323214],> 128
2,COc1cc(CN2CCc3nc(-c4ccccn4)[nH]c(=O)c3C2)ccc1O [Compound 323215],> 128
3,O=c1[nH]c(-c2ccccn2)nc2c1CN(Cc1ccc(Cl)cc1)CC2 [Compound 323216],32
4,COc1ccc(CN2CCc3nc(-c4ccccn4)[nH]c(=O)c3C2)cc1O [Compound 323217],> 128

# Same assay, conditions: Enterococcus faecalis, read-out: MIC E. fae
row,SMILES,MIC [µg/mL]
1,Cc1cccc(-c2nc3c(c(=O)[nH]2)CN(Cc2ccc(Cl)cc2)CC3)n1 [Compound 332052],> 128
2,O=c1[nH]c(-c2ccco2)nc2c1CN(Cc1ccc(Cl)cc1)CC2 [Compound 332053],> 128

# Test system: M. catarrhalis
# Test: Broth microdilution MIC testing
# Assay type: cell-based, Moraxella catarrhalis
# Settings: not given
row,SMILES,MIC M. cat [µg/mL]
1,COc1cc(CN2CCc3nc(-c4ccccn4)[nH]c(=O)c3C2)ccc1OCCO [Compound 323214],> 128
2,COc1cc(CN2CCc3nc(-c4ccccn4)[nH]c(=O)c3C2)ccc1O [Compound 323215],128
3,O=c1[nH]c(-c2ccccn2)nc2c1CN(Cc1ccc(Cl)cc1)CC2 [Compound 323216],≤0.12
4,COc1ccc(CN2CCc3nc(-c4ccccn4)[nH]c(=O)c3C2)cc1O [Compound 323217],32

# Same assay, conditions: Moraxella catarrhalis
row,SMILES,MIC [µg/mL]
1,Cc1cccc(-c2nc3c(c(=O)[nH]2)CN(Cc2ccc(Cl)cc2)CC3)n1 [Compound 332052],32
2,O=c1[nH]c(-c2ccco2)nc2c1CN(Cc1ccc(Cl)cc1)CC2 [Compound 332053],> 128

# Test system: H. influenzae
# Test: Broth microdilution MIC testing
# Assay type: cell-based, Haemophilus influenzae
# Settings: H. influenzae
row,SMILES,MIC H. flu [µg/mL]
1,COc1cc(CN2CCc3nc(-c4ccccn4)[nH]c(=O)c3C2)ccc1OCCO [Compound 323214],> 128
2,COc1cc(CN2CCc3nc(-c4ccccn4)[nH]c(=O)c3C2)ccc1O [Compound 323215],64
3,O=c1[nH]c(-c2ccccn2)nc2c1CN(Cc1ccc(Cl)cc1)CC2 [Compound 323216],2
4,COc1ccc(CN2CCc3nc(-c4ccccn4)[nH]c(=O)c3C2)cc1O [Compound 323217],32

# Same assay, conditions: Haemophilus influenzae, read-out: MIC H. flu
row,SMILES,MIC [µg/mL]
1,Cc1cccc(-c2nc3c(c(=O)[nH]2)CN(Cc2ccc(Cl)cc2)CC3)n1 [Compound 332052],> 64
2,O=c1[nH]c(-c2ccco2)nc2c1CN(Cc1ccc(Cl)cc1)CC2 [Compound 332053],> 64

# Test system: S. pneumoniae
# Test: Broth microdilution MIC testing
# Assay type: cell-based, Streptococcus pneumoniae
# Settings: S. pneumoniae
row,SMILES,MIC S. pneumo [µg/mL]
1,COc1cc(CN2CCc3nc(-c4ccccn4)[nH]c(=O)c3C2)ccc1OCCO [Compound 323214],> 128
2,COc1cc(CN2CCc3nc(-c4ccccn4)[nH]c(=O)c3C2)ccc1O [Compound 323215],> 128
3,O=c1[nH]c(-c2ccccn2)nc2c1CN(Cc1ccc(Cl)cc1)CC2 [Compound 323216],4
4,COc1ccc(CN2CCc3nc(-c4ccccn4)[nH]c(=O)c3C2)cc1O [Compound 323217],> 128

# Same assay, conditions: Streptococcus pneumoniae, read-out: MIC S. pneumo
row,SMILES,MIC [µg/mL]
1,Cc1cccc(-c2nc3c(c(=O)[nH]2)CN(Cc2ccc(Cl)cc2)CC3)n1 [Compound 332052],> 128
2,O=c1[nH]c(-c2ccco2)nc2c1CN(Cc1ccc(Cl)cc1)CC2 [Compound 332053],> 128

# Test system: S. aureus
# Test: Broth microdilution MIC testing
# Assay type: cell-based, Staphylococcus aureus
# Settings: S. aureus
row,SMILES,MIC S. aureus [µg/mL]
1,COc1cc(CN2CCc3nc(-c4ccccn4)[nH]c(=O)c3C2)ccc1OCCO [Compound 323214],> 128
2,COc1cc(CN2CCc3nc(-c4ccccn4)[nH]c(=O)c3C2)ccc1O [Compound 323215],> 128
3,O=c1[nH]c(-c2ccccn2)nc2c1CN(Cc1ccc(Cl)cc1)CC2 [Compound 323216],16
4,COc1ccc(CN2CCc3nc(-c4ccccn4)[nH]c(=O)c3C2)cc1O [Compound 323217],> 128

# Same assay, conditions: Staphylococcus aureus, read-out: MIC S. aureus
row,SMILES,MIC [µg/mL]
1,Cc1cccc(-c2nc3c(c(=O)[nH]2)CN(Cc2ccc(Cl)cc2)CC3)n1 [Compound 332052],> 128
2,O=c1[nH]c(-c2ccco2)nc2c1CN(Cc1ccc(Cl)cc1)CC2 [Compound 332053],> 128

# Test system: E. coli tolC mutants
# Test: Broth microdilution MIC testing
# Assay type: cell-based, Escherichia coli
# Settings: E. coli tolC mutants
row,SMILES,MIC E. coli tolC [µg/mL]
1,COc1cc(CN2CCc3nc(-c4ccccn4)[nH]c(=O)c3C2)ccc1OCCO [Compound 323214],> 128
2,COc1cc(CN2CCc3nc(-c4ccccn4)[nH]c(=O)c3C2)ccc1O [Compound 323215],> 128
3,O=c1[nH]c(-c2ccccn2)nc2c1CN(Cc1ccc(Cl)cc1)CC2 [Compound 323216],8
4,COc1ccc(CN2CCc3nc(-c4ccccn4)[nH]c(=O)c3C2)cc1O [Compound 323217],> 128

# Same assay, conditions: Escherichia coli, read-out: MIC E. coli tolC
row,SMILES,MIC [µg/mL]
1,Cc1cccc(-c2nc3c(c(=O)[nH]2)CN(Cc2ccc(Cl)cc2)CC3)n1 [Compound 332052],> 128
2,O=c1[nH]c(-c2ccco2)nc2c1CN(Cc1ccc(Cl)cc1)CC2 [Compound 332053],> 128

# Test system: E. coli modified with PMBN
# Test: Broth microdilution MIC testing
# Assay type: cell-based, Escherichia coli
# Settings: E. coli modified with PMBN
row,SMILES,MIC E. coli +PMBP [µg/mL]
1,COc1cc(CN2CCc3nc(-c4ccccn4)[nH]c(=O)c3C2)ccc1OCCO [Compound 323214],> 128
2,COc1cc(CN2CCc3nc(-c4ccccn4)[nH]c(=O)c3C2)ccc1O [Compound 323215],> 128
3,O=c1[nH]c(-c2ccccn2)nc2c1CN(Cc1ccc(Cl)cc1)CC2 [Compound 323216],8
4,COc1ccc(CN2CCc3nc(-c4ccccn4)[nH]c(=O)c3C2)cc1O [Compound 323217],> 128

# Same assay, conditions: Escherichia coli, read-out: MIC E. coli +PMBP
row,SMILES,MIC [µg/mL]
1,Cc1cccc(-c2nc3c(c(=O)[nH]2)CN(Cc2ccc(Cl)cc2)CC3)n1 [Compound 332052],> 128
2,O=c1[nH]c(-c2ccco2)nc2c1CN(Cc1ccc(Cl)cc1)CC2 [Compound 332053],> 128
